Experiments:
Assay type in all cases: cell-based
[1] = tested on: DU145 prostate cancer cells; assay: Combination with chemotherapeutic agents, cytotoxicity (3H-thymidine incorporation); conditions: 24 hr treatment, then five days growth; for cytotoxicity of combination with cisplatin compared to additive cytotoxicity: FIGS. 6A, 6B, 6E; for cytotoxicity of combination with SBHA compared to additive cytotoxicity: FIGS. 6C, 6D
Method: The prostate cancer cells were treated with (A) PEP006 and cisplatin, (B) PEP008 and cisplatin, (C) PEP005 and SBHA, (D) PEP008 and SBHA and (E) PEP005 and cisplatin for 24 hr after which the medium was changed and the cells permitted to grow in the presence of ^3H-thymidine for five days. The percentage cell survival was determined by measuring the incorporation of ^3H-thymidine in the cells.

[2] = tested on: MM96L human melanoma cells; assay: Killing by untreated leukocytes of drug-pretreated tumor cells ([3H]-thymidine); conditions: target cells pretreated with 60 ng/mL for 20 hr, washed; 48 hr with human leukocytes; 100:1 ratio of effector:target cells
Method: (§1) The question of whether drug treatment of the target tumor cells causes them to become susceptible to effector cells of the immune system was addressed as follows.
(§2) Leukocytes obtained by lysis of human peripheral blood were added to 5000 MM96L human melanoma cells or 7000 neonatal foreskin fibroblasts per microtitre well at effector: target ratios of 1000, 100 and 10:1. The target cells had been treated with 60 ng/mL PEP008 for 20 hr beforehand, and washed and the medium replaced before the leukocytes were added. After 48 hr incubation with the leukocytes the cultures were washed and labelled with [3H]-thymidine for 2 hr. […] Untreated leukocytes had no effect on cell survival.

[3] = tested on: neonatal foreskin fibroblasts; assay: Killing by untreated leukocytes of drug-pretreated normal cells ([3H]-thymidine); conditions: target cells pretreated with 60 ng/mL for 20 hr, washed; 48 hr with human leukocytes; 100:1 ratio of effector:target cells
Method: as §1, §2

Compound	cytotoxicity of combination with cisplatin compared to additive cytotoxicity [1]	cytotoxicity of combination with SBHA compared to additive cytotoxicity [1]	survival of melanoma cells [2]	survival of normal fibroblasts [3]
C/C=C(/C)C(=O)O[C@H]1C(C)=C[C@]23C(=O)[C@@H](C=C(CO)[C@@H](O)[C@]12O)[C@H]1[C@@H](C[C@H]3C)C1(C)C [PEP005, Ingenol-3-angelate]	synergistic combinations	synergistic combinations		
C/C=C(/C)C(=O)O[C@H]1C(C)=C[C@]23C(=O)[C@@H](C=C(COC(C)=O)[C@@H](O)[C@]12O)[C@H]1[C@@H](C[C@H]3C)C1(C)C [PEP008, 20-O-acetyl-ingenol-3-angelate]	synergistic combinations	synergistic combinations	12%	100%
C/C=C(/C)C(=O)O[C@H]1C(C)=C[C@]23C(=O)[C@H](C=C(C)[C@@H](O)[C@]12O)[C@H]1[C@@H](C[C@H]3C)C1(C)C [PEP006, 20-deoxy-Ingenol-3-angelate]	synergistic combinations			

Source: patent US7378445B2, “Treatment of prostate cancer” (Peplin Research Pty. Ltd., priority 2000, dated 2008)
